Data as given in patent US11209732B2, “Near infrared absorbing composition, film, infrared cut filter, solid image pickup element, infrared absorber, and compound” (FUJIFILM Corporation, priority 2015, dated 2021).

Legend:
[1] = Absorption maximum of compound in chloroform solution; type: physicochemical; conditions: absorbance at maximum 0.7 to 1.2
Protocol: The absorption maximum of the squarylium compound (1) is a value measured using a chloroform solution of the squarylium compound that is adjusted such that an absorbance at the absorption maximum is in a range of 0.7 to 1.2.
Each of the obtained compounds was dissolved in chloroform to prepare a solution having a concentration of 1 g/L. Next, the solution in which each of the compounds was dissolved was appropriately diluted such that an absorbance at an absorption maximum in an absorption spectrum thereof was in a range of 0.7 to 1.2, and the absorption maximum (λmax) thereof was measured using UV-1800 (manufactured by Shimadzu Corporation).

[2] = Solubility of compound in solvents at 25° C.; type: physicochemical; conditions: for Solubility Cyclohexanone / Solubility in each of the solvents (in words): cyclohexanone; for Solubility in each of the solvents (in words): PGMEA; for Solubility in each of the solvents (in words) / Solubility Toluene: toluene; for Solubility PGMEA: propylene glycol monomethyl ether acetate
Protocol: The solubility of each of the compounds in each of solvents (cyclohexanone, propylene glycol monomethyl ether acetate (PGMEA), toluene) at 25° C. was evaluated based on the following criteria.
A: the solubility of the compound in the solvent at 25° C. was 2 mass % or higher

| SMILES | Absorption Maximum (nm) [1] | Solubility Cyclohexanone [2] | Solubility in each of the solvents (in words) [2] | Solubility PGMEA [2] | Solubility Toluene [2] |
| --- | --- | --- | --- | --- | --- |
| CCCCc1ccc(N(c2ccc(CCCC)cc2)c2ccc(C3=C([O-])/C(=C4\C=CC(=[N+](c5ccc(CCCC)cc5)c5ccc(CCCC)cc5)S4)C3=O)s2)cc1 [Compound R-3, reference compound] | 704 nm | B (the solubility of the compound in the solvent at 25 °C was 1 mass % or higher and lower than 2 mass %) | insufficient | D (the solubility of the compound in the solvent at 25 °C was lower than 0.5 mass %) | B (the solubility of the compound in the solvent at 25 °C was 1 mass % or higher and lower than 2 mass %) |
| CCCCCCc1cc(-c2ccc(N(c3ccc(C)cc3)c3ccc(C)cc3)s2)sc1C1=C([O-])/C(=c2/s/c(=C3\C=CC(=[N+](c4ccc(C)cc4)c4ccc(C)cc4)S3)cc2CCCCCC)C1=O [Compound 5] | – | A (the solubility of the compound in the solvent at 25 °C was 2 mass % or higher) | – | B (the solubility of the compound in the solvent at 25 °C was 1 mass % or higher and lower than 2 mass %) | A (the solubility of the compound in the solvent at 25 °C was 2 mass % or higher) |
| CCCCCCCCCCCCN(c1ccccc1)c1ccc(C2=C([O-])/C(=C3C=C/C(=[N+](\CCCCCCCCCCCC)CCNS(=O)(=O)CCCC)C=C/3O)C2=O)s1 [Compound R-2, reference compound] | 653 nm | A (the solubility of the compound in the solvent at 25 °C was 2 mass % or higher) | – | A (the solubility of the compound in the solvent at 25 °C was 2 mass % or higher) | A (the solubility of the compound in the solvent at 25 °C was 2 mass % or higher) |
| CCCCCCCCc1ccc(N(c2ccc(CCCCCCCC)cc2)c2cc3sc(C4=C([O-])/C(=c5\cc6c(s5)=CC(=[N+](c5ccc(CCCCCCCC)cc5)c5ccc(CCCCCCCC)cc5)S6)C4=O)cc3s2)cc1 [Compound 2] | 770 nm | A (the solubility of the compound in the solvent at 25 °C was 2 mass % or higher) | – | B (the solubility of the compound in the solvent at 25 °C was 1 mass % or higher and lower than 2 mass %) | B (the solubility of the compound in the solvent at 25 °C was 1 mass % or higher and lower than 2 mass %) |
| CCCCCCC1=CC(=[N+](c2ccc3ccccc3c2)c2ccc3ccccc3c2)S/C1=C1\C(=O)C(c2sc(N(c3ccc4ccccc4c3)c3ccc4ccccc4c3)cc2CCCCCC)=C1[O-] [Compound 1] | 719 nm | A (the solubility of the compound in the solvent at 25 °C was 2 mass % or higher) | – | B (the solubility of the compound in the solvent at 25 °C was 1 mass % or higher and lower than 2 mass %) | A (the solubility of the compound in the solvent at 25 °C was 2 mass % or higher) |
| O=C1C(c2sc(N(c3ccccc3)c3ccccc3)nc2-c2ccccc2)=C([O-])/C1=C1/SC(=[N+](c2ccccc2)c2ccccc2)N=C1c1ccccc1 [Compound R-1, reference compound] | 687 nm | C (the solubility of the compound in the solvent at 25 °C was 0.5 mass % or higher and lower than 1 mass %) | insufficient | D (the solubility of the compound in the solvent at 25 °C was lower than 0.5 mass %) | C (the solubility of the compound in the solvent at 25 °C was 0.5 mass % or higher and lower than 1 mass %) |
| CCCCCCCCc1ccc(N(c2ccc(CCCCCCCC)cc2)c2ccc(/C=C/c3ccc(C4=C([O-])/C(=c5\cc/c(=C\C=C6/C=CC(=[N+](c7ccc(CCCCCCCC)cc7)c7ccc(CCCCCCCC)cc7)S6)s5)C4=O)s3)s2)cc1 [Compound 4] | 860 nm | A (the solubility of the compound in the solvent at 25 °C was 2 mass % or higher) | – | B (the solubility of the compound in the solvent at 25 °C was 1 mass % or higher and lower than 2 mass %) | B (the solubility of the compound in the solvent at 25 °C was 1 mass % or higher and lower than 2 mass %) |
